Laboratory results: US20120088827A1 (Profectus Biosciences, Inc., priority 2009, published 2012)

Legend:
[1] = tested on: NF-κB driven transcription (pNF-κB-luc reporter, 293 cells); assay: 293/NF-kB-luc reporter cell assay; format: cell-based; settings: Homo sapiens; compound 2 hours, then 20 ng/ml TNF-α for 18 hours; luminescence
Method: (§1) Two reporter cell assays were used to determine the ability of the compounds of Examples 1-12 to inhibit NF-κB driven transcription. The first assay was a 293-cell based assay with a stably integrated pNF-κB-luc reporter plasmid containing 3 NF-κB promoter elements. The second assay was a 293-cell based assay with a stably integrated pTRH1-NF-κB-dscGFP reporter containing 4 NF-κB promoter elements. Cells were treated with 0, 0.2, 1, 10, 20 and 40 μM of the compounds of Example 1-12 for 2 hours then were induced with 20 ng/ml TNF-α for 18 hours. Following the induction, luminescence or fluorescence was quantified using a Beckman-Coulter 2300 plate reader. […] As a control, 0.5% DMSO treated and untreated cells were compared to verify that the compounds of Examples 1-12 had no effect on the expression of luciferase or in the readout of the assay. There was a slight decrease in the output from the assay in the DMSO treated population although it was not statistically significant. As a result of the controls, the decrease in activity in the drug treated samples was compared to the DMSO control sample.

[2] = tested on: NF-κB driven transcription (pTRH1-NF-κB-dscGFP reporter, 293 cells); assay: NF-kB/293/GFP reporter cell assay; format: cell-based; settings: Homo sapiens, HEK293; compound 2 hours, then 20 ng/ml TNF-α for 18 hours; fluorescence
Method: as §1

[3] = target: T1, c-Rel (Homo sapiens, UniProt Q04864); assay: TransAM NF-κB Family DNA Binding ELISA, c-Rel
T1 sequence (Q04864 1-619): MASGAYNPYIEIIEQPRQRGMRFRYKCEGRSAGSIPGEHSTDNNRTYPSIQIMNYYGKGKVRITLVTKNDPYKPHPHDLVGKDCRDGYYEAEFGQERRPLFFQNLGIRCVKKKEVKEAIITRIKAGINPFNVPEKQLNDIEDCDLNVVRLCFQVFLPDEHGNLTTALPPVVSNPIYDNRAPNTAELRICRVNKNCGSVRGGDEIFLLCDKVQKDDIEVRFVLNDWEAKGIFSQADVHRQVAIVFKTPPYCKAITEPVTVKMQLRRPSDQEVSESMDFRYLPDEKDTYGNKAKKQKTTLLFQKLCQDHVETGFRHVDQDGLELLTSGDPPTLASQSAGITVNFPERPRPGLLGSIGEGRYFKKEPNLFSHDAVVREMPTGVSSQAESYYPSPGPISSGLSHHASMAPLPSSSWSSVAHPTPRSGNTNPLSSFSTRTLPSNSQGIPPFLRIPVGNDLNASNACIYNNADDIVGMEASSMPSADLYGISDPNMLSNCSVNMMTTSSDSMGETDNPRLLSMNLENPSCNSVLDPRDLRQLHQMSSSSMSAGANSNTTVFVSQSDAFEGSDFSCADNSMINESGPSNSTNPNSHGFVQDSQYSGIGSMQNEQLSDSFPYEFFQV
Method: The binding activity of NF-κB heterodimer or homodimer subunits from activated nuclear extracts or purified recombinant NF-κB proteins exposed to the drug compounds was evaluated using the TransAM NF-κB Family binding ELISA (Active Motif). Approximately 3-5 μg of nuclear extracts from TNFα activated Hela or Raji cells (Active Motif) or 20 ng of purified recombinant proteins (p65 and p50 from Active Motif, p52 from Santa Cruz) were incubated for 1 hour at room temperature with 20 μL drug compounds diluted in Complete Lysis buffer without DTT. Treated samples were then transferred to 30 μL Complete Binding Buffer (with DTT) in microplate wells pre-coated with the NF-κB consensus oligonucleotide. […] The plate was incubated for 1 hour at room temperature with gentle shaking and then washed 3 times with 200 μL 1× Wash Buffer. NF-κB p65, p50, p52, RelB, or c-Rel subunits bound to the plate were detected with 100 μL of the primary antibody (diluted 1:1000 in 1× Antibody Buffer) specific for that subunit. The plate was incubated for 1 hour at room temperature and then washed 3 times with 200 μL 1× Wash Buffer. Next, 100 μL of a HRP conjugated goat anti-rabbit antibody (diluted 1:1,000 in 1× Antibody Buffer) was added to each well. The plate was incubated for 1 hour at room temperature and then washed 4 times with 200 μL 1× Wash Buffer. 100 μL of room temperature Developing Solution was added to each well. The reaction was allowed to develop for 2-10 minutes until a medium dark blue color developed (depending on the subunit activity in the lot of extract or lot of recombinant protein used) and then the reaction was stopped with 100 μL Stop Solution yielding a yellow color. Absorbance was recorded using a Becton-Dickinson DTX 880 Multimode Detector at 450 nm with a reference wavelength subtracted at 620 nm.

## CC(C)OC(=O)OC1C(NC(=O)c2ccccc2O)=CC(=O)C2OC21 (racemic) [Example 8]
[1]
  EC50: 10 µM
[2]
  EC50: 14 µM
[3]
  inhibition at 5 µM: 2%

## O=C(CC1CCCCC1)Oc1ccccc1C(=O)NC1=CC(=O)C2OC2C1O (racemic) [Example 3, (±)-2-(2-hydroxy-5-oxo-7-oxabicyclo[4.1.0]hept-3-en-3-ylcarbamoyl)phenyl 2-cyclohexylacetate]
[1]
  EC50: 14 µM
[2]
  EC50: 10 µM
[3]
  inhibition at 5 µM: 3%

## CCCCC(CC)C(=O)Oc1ccccc1C(=O)NC1=CC(=O)C2OC2C1O (racemic) [Example 5, (±)-2-(2-hydroxy-5-oxo-7-oxabicyclo[4.1.0]hept-3-en-3-ylcarbamoyl)phenyl 2-ethylhexanoate]
[1]
  EC50: 15 µM
[2]
  EC50: 6.7 µM
[3]
  inhibition at 5 µM: 9%

## CCCC(C)C(=O)Oc1ccccc1C(=O)NC1=CC(=O)C2OC2C1O (racemic) [Example 4, (±)-2-(2-hydroxy-5-oxo-7-oxabicyclo[4.1.0]hept-3-en-3-ylcarbamoyl)phenyl 2-methylpentanoate]
[1]
  EC50: 10 µM
[2]
  EC50: 17 µM
[3]
  inhibition at 5 µM: 9%

## CC(C)CC(=O)Oc1ccccc1C(=O)NC1=CC(=O)C2OC2C1O (racemic) [Example 1, (±)-2-(2-hydroxy-5-oxo-7-oxabicyclo[4.1.0]hept-3-en-3-ylcarbamoyl)phenyl 3-methylbutanoate]
[1]
  EC50: 18 µM
[2]
  EC50: 11 µM
[3]
  inhibition at 5 µM: 1%

## CC(C)OC(=O)Oc1ccccc1C(=O)NC1=CC(=O)C2OC2C1O (racemic) [Example 7, (±)-2-(2-hydroxy-5-oxo-7-oxabicyclo[4.1.0]hept-3-en-3-ylcarbamoyl)phenyl isopropyl carbonate]
[1]
  EC50: 17 µM
[2]
  EC50: 8.4 µM
[3]
  inhibition at 5 µM: 5%

## CC(C)(C)CC(=O)Oc1ccccc1C(=O)NC1=CC(=O)C2OC2C1O (racemic) [Example 6, (±)-2-(2-hydroxy-5-oxo-7-oxabicyclo[4.1.0]hept-3-en-3-ylcarbamoyl)phenyl 3,3-dimethylbutanoate]
[1]
  EC50: 8 µM
[2]
  EC50: 10 µM
[3]
  inhibition at 5 µM: 6%

## CC(C)OC(=O)Oc1ccccc1C(=O)NC1=CC(=O)C2OC2C1OC(=O)OC(C)C (racemic) [Example 2, (±)-3-(2-isopropoxycarbonyloxy-benzoylamino)-5-oxo-7-oxa-bicyclo[4.1.0]hept-3-en-2-yl ester isopropyl ester]
[1]
  EC50: 11 µM
[3]
  inhibition at 5 µM: 0%
